According to patent US7265148B2, “Substituted pyrrole-indoles” (Wyeth, priority 2003, dated 2007):

Tests used:
[1] = biological target: T1, recombinant human plasminogen activator inhibitor-1 (PAI-1) (Homo sapiens, UniProt P05121); experiment: Primary screen for the PAI-1 inhibition (chromogenic tPA activity); assay type: biochemical; settings: pH 6.6; for inhibition at 10 µM: 10 μM test compound; for inhibition at 25 µM: 25 μM test compound
T1 construct: purchased Molecular Innovations, Royal Oak, Mich
Protocol: Test compounds are dissolved in DMSO at a final concentration of 10 mM, then diluted 100× in physiologic buffer. The inhibitory assay is initiated by the addition of the test compound (1-100 μM final concentration, maximun DMSO concentration of 0.2%) in a pH 6.6 buffer containing 140 nM recombinant human plasminogen activator inhibitor-1 (PAI-1; Molecular Innovations, Royal Oak, Mich.). Following a 1 hour incubation at room temperature, 70 nM of recombinant human tissue plasminogen activator (tPA) is added, and the combination of the test compound, PAI-1 and tPA is incubated for an additional 30 minutes. Following the second incubation, Spectrozyme-tPA (American Diagnostica, Greenwich, Conn.), a chromogenic substrate for tPA, is added and absorbance read at 405 nm at 0 and 60 minutes. Relative PAI-1 inhibition is equal to the residual tPA activity in the presence of the test compound and PAI-1. Control treatments include the complete inhibition of tPA by PAI-1 at the molar ratio employed (2:1), and the absence of any effect of the test compound on tPA alone.

human PAI-1 = human PAI-1 (Homo sapiens, UniProt P05121); experiment: Assay for determining IC50 of inhibition of PAI-1 (tPA-coated plate, antibody detection); assay type: binding; settings: active PAI-1 bound to tPA-coated plate; pH 7.5
Protocol: This assay is based upon the non-SDS dissociable interaction between tPA and active PAI-1. Assay plates are initially coated with human tPA (10 μg/ml). Test compounds of the present invention are dissolved in DMSO at 10 mM, then diluted with physiologic buffer (pH 7.5) to a final concentration of 1-50 μM. Test compounds are incubated with human PAI-1 (50 ng/ml) for 15 minutes at room temperature. The tPA-coated plate is washed with a solution of 0.05% Tween 20 and 0.1% BSA, then the plate is blocked with a solution of 3% BSA. An aliquot of the substituted pyrrole-indole/PAI-1 solution is then added to the tPA-coated plate, incubated at room temperature for 1 hour, and washed. Active PAL-1 bound to the plate is assessed by adding an aliquot of a 1:1000 dilution of the 33B8 monoclonal antibody against human PAI-1, and incubating the plate at room temperature for 1 hour (Molecular Innovations, Royal Oak, Mich.). […] The plate is incubated 45 minutes at room temperature, and color development is determined at OD405 nm. The quantitation of active PAI-1 bound to tPA at varying concentrations of the test compound is used to determine the IC50. Results are analyzed using a logarithmic best-fit equation. The assay sensitivity is 5 ng/ml of human PAI-1 as determined from a standard curve ranging from 0-100 ng/ml.

T1 sequence (P05121 24-402): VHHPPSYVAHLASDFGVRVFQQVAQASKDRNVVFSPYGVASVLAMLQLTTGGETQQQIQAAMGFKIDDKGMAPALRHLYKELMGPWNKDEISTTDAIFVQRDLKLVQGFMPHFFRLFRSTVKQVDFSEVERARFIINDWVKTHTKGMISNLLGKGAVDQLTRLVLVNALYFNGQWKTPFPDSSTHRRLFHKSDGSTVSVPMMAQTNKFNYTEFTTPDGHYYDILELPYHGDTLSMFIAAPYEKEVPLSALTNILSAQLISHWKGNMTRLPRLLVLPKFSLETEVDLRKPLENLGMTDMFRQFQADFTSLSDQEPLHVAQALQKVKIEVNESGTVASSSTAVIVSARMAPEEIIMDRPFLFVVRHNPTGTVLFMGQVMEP
Chain of human PAI-1 (P05121 24-402): as above

Structure (SMILES)	inhibition at 10 µM [1] [%]	inhibition at 25 µM [1] [%]	IC50 (human PAI-1) [µM]
Cc1ccc(C)n1-c1ccc2c(c1)c(-c1ccccc1)c(C(=O)O)n2Cc1ccccc1 [Example 5, 1-benzyl-5-(2,5-dimethyl-1H-pyrrol-1-yl)-3-phenyl-1H-indole-2-carboxylic acid]	23	83	
Cc1ccc(C)n1-c1ccc2c(c1)c(-c1ccccc1)c(C(=O)N[C@@H](CC(C)C)C(=O)O)n2Cc1ccccc1 [Example 6, N-{[1-benzyl-5-(2,5-dimethyl-1H-pyrrol-1-yl)-3-phenyl-1H-indol-2-yl]carbonyl}-L-leucine]	76	79	12.9
O=C(O)c1c(-c2ccccc2)c2cc(-n3ccc4ccccc43)ccc2n1Cc1ccc(-c2ccccc2)cc1 [Example 8, 1′-(1,1′-biphenyl-4-ylmethyl)-3′-phenyl-1′H-1,5′-biindole-2′-carboxylic acid]	60	79	
O=C(O)c1[nH]c2ccc(-n3cccc3)cc2c1-c1ccccc1 [Example 9, 3-phenyl-5-(1H-pyrrol-1-yl)-1H-indole-2-carboxylic acid]	19	47	
CC(C)(C)c1ccc(-c2c(C(=O)O)n(Cc3ccccc3)c3ccc(-n4cccc4)cc23)cc1 [Example 10, 1-benzyl-3-(4-tert-butylphenyl)-5-(1H-pyrrol-1-yl)-1H-indole-2-carboxylic acid]	49	90	
CC(C)(C)c1ccc(-c2c(C(=O)O)n(Cc3ccccc3)c3ccc(-n4ccc5ccccc54)cc23)cc1 [Example 11, 1′-benzyl-3′-(4-tert-butylphenyl)-1′H-1,5′-biindole-2′-carboxylic acid]	66	99	
O=C(N[C@@H](Cc1ccccc1)C(=O)O)c1[nH]c2ccc(-n3cccc3)cc2c1-c1ccccc1 [Example 12, N-{[3-phenyl-5-(1H-pyrrol-1-yl)-1H-indol-2-yl]carbonyl}-L-phenylalanine]	39	51	

Now from value to compound:

inhibition at 10 µM [1] [%]	inhibition at 25 µM [1] [%]	IC50 (human PAI-1) [µM]	Structure (SMILES)
12	69		O=C(O)c1c(-c2ccccc2)c2cc(-n3cccc3)ccc2n1Cc1ccccc1 [Example 1, 1-benzyl-3-phenyl-5-(1H-pyrrol-1-yl)-1H-indole-2-carboxylic acid]
4	61		Cn1c(C(=O)N[C@@H](Cc2ccccc2)C(=O)O)c(-c2ccccc2)c2cc(-n3cccc3)ccc21 [Example 2, N-{[1-methyl-3-phenyl-5-(1H-pyrrol-1-yl)-1H-indol-2-yl]carbonyl}-L-phenylalanine]
15	52		O=C(N[C@@H](Cc1ccccc1)C(=O)O)c1c(-c2ccccc2)c2cc(-n3cccc3)ccc2n1Cc1ccccc1 [Example 3, N-{[1-benzyl-3-phenyl-5-(1H-pyrrol-1-yl)-1H-indol-2-yl]carbonyl}-L-phenylalanine]
18	90		CC(C)C[C@H](NC(=O)c1c(-c2ccccc2)c2cc(-n3cccc3)ccc2n1Cc1ccccc1)C(=O)O [Example 4, N-{[1-benzyl-3-phenyl-5-(1H-pyrrol-1-yl)-1H-indol-2-yl]carbonyl}-L-leucine]
56	90		O=C(O)c1c(-c2ccccc2)c2cc(-n3cccc3)ccc2n1Cc1ccc(-c2ccccc2)cc1 [Example 7, 1-(1,1′-biphenyl-4-ylmethyl)-3-phenyl-5-(1H-pyrrol-1-yl)-1H-indole-2-carboxylic acid]
